# According to patent US20240101541A1 (priority 2020, published 2024):
# Assays:
# SARS-CoV-2 3CLpro = SARS-CoV-2 3CLpro (Severe acute respiratory syndrome coronavirus 2, UniProt P0DTD1); test: biochemical
# SARS-CoV-2 = test: microbe, parasite or virus in culture; type: cell-based; conditions: Severe acute respiratory syndrome coronavirus 2, read-out: Antiviral EC50
Compound,IC50 (SARS-CoV-2 3CLpro) [µM],EC50 (SARS-CoV-2) [µM]
O=C(Cn1nnc2ccccc21)N(Cc1ccc(-c2ccccn2)cc1)Cc1ccsc1,50 to 100,> 100
O=C(Cn1nnc2ccccc21)N(Cc1ccsc1)c1ccc(-c2ccccc2)cc1,–,50 to 100
O=C(Cn1nnc2ccccc21)N(Cc1ccc(-c2ccccc2)cc1)Cc1ccsc1,> 100,5 to 50
O=C(Cn1ccc2ccccc21)N(Cc1ccsc1)c1ccc(-c2ccccc2)cc1,> 100,> 100
